Usually EC50 stands for the midpoint of the concentration-response curve. A low value points to an effect from little substance.

SMILES strings stand for the structures. Where a name gives a salt, the structure may show the parent alone.

The text below walks through data of patent US7049445B2, “Bicyclic compounds” (Asahi Kasei Pharma Corporation, priority 2000, dated 2006).

Series [1] concerns the target T1, human β3 (Homo sapiens, UniProt P13945).
T1 construct: used as a probe to obtain the full length human β3 gene from a human genomic library; expressed in transfected cells; host or cells: CHO (Chinese hamster ovary) cells, pcDNA3 vector
Put plainly: Human β3-agonist activities (cAMP in transfected CHO cells). The format is cell-based. Particulars: CHO cells transfected with human β3 gene; for EC50: cAMP quantitated by EIA after 30 minutes; for Emax: read-out: Intrinsic activity* (relative activities as compared with isoproterenol). The protocol:
Human β3-agonist activities were determined using CHO (Chinese hamster ovary) cells transfected with pcDNA3 (mfd. by Invitrogen) to which human β3 gene had been inserted. Human β3 fragment was first obtained from human adipose tissue cDNA (mfd. by Clonetech) by PCR using the primer of β3 (Krief, et al., J. Clin. Invest., vol. 91, pp. 344-349 (1993)). The human β3 fragment thus obtained was used as a probe to obtain the full length human β3 gene from a human genomic library (mfd. by Clonetech). The above cells were cultured in a Ham F-12 medium supplemented with 10% fetal bovine serum, 400 μg/mL geneticin (Gibco BRL), 100 U/mL penicillin and 100 μg/mL streptomycin. After placing these cells (5×10^5) into a 6-well plate and culturing them for 24 hours, they were allowed to stand on a serum-free Ham F-12 medium for 2 hours. The compound was first dissolved in DMSO, diluted to a concentration of 10^−6 M with Ham F-12 supplemented with 1 mM isobutylmethylxanthine and 1 mM ascorbic acid, and then added to the cells. After the cells were cultured for 30 minutes, the medium was removed, followed by addition of 0.5 mL of 1 N NaOH. The medium was allowed to stand for 20 minutes and then 0.5 mL of 1 N acetic acid was added to the medium. The medium was stirred and centrifuged, followed by quantitating cAMP with cAMP EIA kit (mfd. by Cayman). With respect to eight compounds among the compounds described in Examples, their relative activities (%) as compared with isoproterenol were indicated in Table 3. Isoproterenol was purchased from RBI (Research Biochemicals International). The results from Table 3 indicate that the compounds of the present invention have human β3-agonist activities.

Series [2] deals with male ddy mice. Put plainly: Toxicity test. The format is in vivo. Particulars: orally administered to 6-week old male ddy mice at 100 mg/kg.
In series [3] the test system is transgenic mouse expressing human β3. Put plainly: Thermogenesis in transgenic mouse expressing human β3. The format is in vivo. Particulars: orally administered to transgenic mice, 3 to 10 mg/kg. An excerpt: Ito, et al. prepared a replacement mouse expressing human β3 in its brown fat by introducing human β3 gene into a mouse whose mouse β3 gene had been knocked out (Ito, et al., Diabetes, vol. 47, pp. 1464-1471 (1998)). A compound of the present invention can be tested for antiobestic activity and antidiabetic activity using a transgenic mouse according to the following procedures.
The thermogenesis can be measured with OXYMAX System (Columbus) according to the method reported by Largis et al. (Drug Development Research, vol. 32, pp. 69-76 (1994)). According to this device, the amount of thermogenesis can be obtained by calculating the calories based on the amount of oxygen consumed and the amount of carbon dioxide generated. After the administration of a medicinal substance, the measurements are carried out for 120 minutes (15 points). The average of the measured values obtained for the latter […] (10 points) is converted into a value per body weight to give the amount of thermogenesis. When a test by repetitive administrations is carried out, a medicinal substance may be administered at a dose once daily, twice daily or the like. The duration of administration may be 1 week, 2 weeks or more. In a test by repetitive administrations, body weight, blood glucose level and insulin level can be monitored with the passage of time as the method of Largis et al. (Drug Development Research, vol. 32, pp. 69-76 (1994). It is also possible that after the completion of the administration, the animal is anatomized to measure the weight of fat tissue or to prepare a section followed by a microscopic examination. Further, the expression level of UCP-1 can be examined according to the method reported by Nagase et al. (J. Clin. Invest., vol. 97, pp. 2898-2904 (1996)).
The present compounds were orally administered to transgenic mice in an amount of from 3 to 10 mg/kg to measure their thermogenesis.

Where [4] appears, read: cAMP, relative to isoproterenol.

T1 sequence (P13945 whole entry): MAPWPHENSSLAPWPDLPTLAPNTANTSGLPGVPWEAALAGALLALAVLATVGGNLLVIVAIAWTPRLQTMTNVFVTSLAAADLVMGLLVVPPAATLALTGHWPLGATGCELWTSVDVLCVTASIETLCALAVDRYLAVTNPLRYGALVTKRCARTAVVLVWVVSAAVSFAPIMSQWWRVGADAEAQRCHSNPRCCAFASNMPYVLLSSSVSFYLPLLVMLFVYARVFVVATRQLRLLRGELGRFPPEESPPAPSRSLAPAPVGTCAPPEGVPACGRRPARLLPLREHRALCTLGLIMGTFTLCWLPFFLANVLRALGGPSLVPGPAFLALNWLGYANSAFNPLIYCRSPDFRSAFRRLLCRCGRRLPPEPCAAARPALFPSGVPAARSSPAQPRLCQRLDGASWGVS

In turn, `Cc1[nH]c2cc(OCCNCC(O)c3cccc(NS(C)(=O)=O)c3)ccc2c1C.O=C(O)C(F)(F)F` (stereo not shown) [Example 3, N-[3-[2-[2-(2,3-dimethyl-1H-indol-6-yloxy)ethylamino]-1-hydroxyethyl]phenyl]methanesulfonamide trifluoroacetate] came in with an EC50 in series [1] of 8.7 nM. Besides, the Emax in series [1] (setting [4]) was determined as 100%. Besides, the Mortality entry in series [2] is “none of eight animals were found to be dead”.
In series [1], `Cc1[nH]c2cc(OCCNCC(O)c3ccc(Cl)c(NS(C)(=O)=O)c3)ccc2c1C` (stereo not shown) [Example 4, N-[5-[2-[2-(2,3-dimethyl-1H-indol-6-yloxy)ethylamino]-1-hydroxyethyl]-2-chlorophenyl]methanesulfonamide trifluoroacetate] returned an EC50 of 10 nM. For the same molecule, the Emax in series [1] (setting [4]) came out at 73%.
In the case of `CNS(=O)(=O)c1cc(C(O)CNCCOc2ccc3c(C)c(C)[nH]c3c2)ccc1O.O=C(O)C(F)(F)F` (stereo not shown) [Example 9, N-methyl-[5-[2-[2-(2,3-dimethyl-1H-indol-6-yloxy)ethylamino]-1-hydroxyethyl]-2-hydroxy]benzenesulfonamide trifluoroacetate], the response in series [1] was half-maximal at 16 nM (EC50). For the same molecule, the “Intrinsic activity* (relative activities as compared with isoproterenol)” value in series [1] (setting [4]) was determined as 62%. Also, in series [2], the Mortality result is given as “none of eight animals were found to be dead”.
`Cc1[nH]c2cc(OCCNC[C@H](O)c3ccc(Cl)c(NS(C)(=O)=O)c3)ccc2c1C.Cl` [Example 10, (R)-N-[5-[2-[2-(2,3-dimethyl-1H-indol-6-yloxy)ethylamino]-1-hydroxyethyl]-2-chlorophenyl]methanesulfonamide hydrochloride]: the EC50 in series [1] turned out to be 4.5 nM. For the same molecule, the Emax in series [1] (setting [4]) worked out at 78%. Besides, the “Increase of thermogenesis as compared with the control group” value (shortened to “Increase of thermogenesis”) in series [3] amounted to 15%. Also, the Mortality result in series [2] is given as “none of eight animals were found to be dead”.
In turn, `Cc1[nH]c2cc(OCCNC[C@H](O)c3cccc(NS(C)(=O)=O)c3)ccc2c1C.Cl` [Example 11, (R)-N-[3-[2-[2-(2,3-dimethyl-1H-indol-6-yloxy)ethylamino]-1-hydroxyethyl]phenyl]methanesulfonamide hydrochloride] displayed an EC50 in series [1] of 4.8 nM. In series [1] (setting [4]), the Emax worked out at 80%. In series [3], the “Increase of thermogenesis” value is 17%.
`CNS(=O)(=O)c1cc([C@@H](O)CNCCOc2ccc3c(C)c(C)[nH]c3c2)ccc1O` [Example 12, N-methyl-(R)-[5-[2-[2-(2,3-dimethyl-1H-indol-6-yloxy)ethylamino]-1-hydroxyethyl]-2-hydroxy]benzenesulfonamide hydrochloride] gave an EC50 in series [1] of 5.3 nM. The Emax in series [1] (setting [4]) came out at 71%.
`Cc1c(-c2ccccc2)[nH]c2cc(OCCNC[C@H](O)c3cccc(NS(C)(=O)=O)c3)ccc12.Cl` [Example 13, (R)-N-[3-[2-[2-(3-methyl-2-phenyl-1H-indol-6-yloxy)ethylamino]-1-hydroxyethyl]phenyl]methanesulfonamide hydrochloride] registered an EC50 in series [1] of 14 nM. In series [1] (setting [4]), the Emax is 96%. For the same molecule, the “Increase of thermogenesis” value in series [3] was found to be 15%.
Molecule `Cc1c(-c2ccccc2)[nH]c2cc(OCCNC[C@H](O)c3ccc(Cl)c(NS(C)(=O)=O)c3)ccc12` [Example 17, (R)-N-[5-[2-[2-(3-methyl-2-phenyl-1H-indol-6-yloxy)ethylamino]-1-hydroxyethyl]-2-chlorophenyl]methanesulfonamide hydrochloride] gave an EC50 in series [1] of 4.4 nM. Besides, the Emax in series [1] (setting [4]) turned out to be 94%.
